From paper PMC9095528, “Spectrofluorimetric Approach for Quantification of Cyclizine in the Presence of its Toxic Impurities in Human Plasma; in silico Study and ADMET Calculations” (Journal of Fluorescence, 2022)

Columns and labels:
[1] = Stability of CYZ in plasma (short-term room temperature and freeze-thaw); type: in vitro ADME, human; settings: rat plasma
Procedure: To cover the anticipated sample treatment and storage environments during the processing of samples, the stability of CYZ in human plasma was investigated as short‐term stability at room temperature and freeze–thaw stability. In all stability tests, three replicates of three concentrations at low, medium, and high levels were treated and compared to recently prepared QC samples.

[2] = Pharmacokinetics of CYZ in human plasma after I.V administration (non-compartmental analysis); type: in vivo
Procedure: One mL of CYZ was intravenously injected into three human volunteers in good health and Using a calibrated heparinized tube, a 5 mL sample of human blood was drawn from each volunteer after 0.5, 1, 2, 4, 8 hrs. All the collected samples were centrifuged for 20 min at 4000 rpm. 1 mL of each sample was quantitatively poured into a centrifuge tube, and 1 mL acetonitrile was applied to precipitate plasma proteins, until centrifugation at 4000 rpm for 20 minutes. The clear plasma supernatant was transferred to Eppendorf tubes and held at […] until the rest of the procedure was completed.
Non-compartmental analysis (NCA) was used to measure pharmacokinetic parameters such as half-life, C max, T max, elimination rate constant, clearance, apparent volume of distribution, and area under the curve using Thermo Kinetica software (version 5.0) and PK solver software after taking human plasma samples from previously injected volunteers. In deciding the proper usage of the drug and in forecasting the impact of pharmacokinetic drug interactions, the results of pharmacokinetic research have been helpful.

[3] = intravenous, I.V administration of Emetrex 50 mg

remaining at 6 h, 30 ng/mL ([1]; 30 ng/mL, room temperature for 6 h): 97 ± 1.13%
remaining at 30 ng/mL ([1]; 30 ng/mL, three freeze thaw cycle): 97.1 ± 1.32%
remaining at 6 h, 400 ng/mL ([1]; 400 ng/mL, room temperature for 6 h): 98.03 ± 0.98%
remaining at 400 ng/mL ([1]; 400 ng/mL, three freeze thaw cycle): 96.5 ± 0.97%
remaining at 6 h, 800 ng/mL ([1]; 800 ng/mL, room temperature for 6 h): 96.1 ± 1.88%
remaining at 800 ng/mL ([1]; 800 ng/mL, three freeze thaw cycle): 97.2 ± 1.76%
Elimination rate constant (K) ([2]; I.V administration of Emetrex 50 mg): 0.274 ± 0.10
Tmax ([2]; intravenous, 50 mg, after I.V injection): 2 h
AUC(0-inf) [2, 3]: 213 ± 7.21 µg·h/mL
AUC(0-t) [2, 3]: 22300 ± 1220 ng·h/mL
Cmax [2, 3]: 72.8 ± 1.56 ng/mL
half-life [2, 3]: 152 ± 25.8 min
Vd ([2]; intravenous, I.V administration of Emetrex 50 mg, read-out: Volume of distribution (Vd)): 0.695 ± 0.23 L
SMILES: CN1CCN(C(c2ccccc2)c2ccccc2)CC1 [CYZ, 1-benzhydryl-4-methylpiperazine]
